According to US20050181947A1, “Fungicidal seed treatment agent for oilseed rape” (BASF Agro BV., Amhem (NL)-Wadenswil-Branch, priority 2002, published 2005):

What was measured:
[1] = test system: Fungal infestation of the leaves; test: Field trial of treated oilseed rape seed: fungal infestation of the leaves (grading); format: in vivo, Brassica napus
Experimental: (§1) The seed treated in accordance with the production examples described above was tested in field trials at a sowing rate of 4 kg per hectare. The individual test parameters were evaluated using the methods usually used in practice in each case, such as determining the weight for plant biomass and grading in the event of fungal infestation.
(§2) The increase in the plant biomass and the suppression of fungal infestation in both the exemplary embodiments of treatment of oilseed rape seed with fluquinconazole is higher compared with the untreated control and compared with the active substance dimethomorph which was co-tested as a reference and is used as the standard treatment agent in oilseed rape for protection against downy mildew.

[2] = test system: Brassica napus (winter rape, species Bristol); test: Field trial of treated oilseed rape seed: plant biomass (determining the weight); format: in vivo; conditions: for Plant biomass (% - relative to untreated): standard treatment agent, rate not given, winter rape Bristol, untreated = 100
Experimental: as §1, §2

[3] = test system: downy mildew; test: Field trial of treated oilseed rape seed: foliar infestation with downy mildew (grading); format: in vivo, Brassica napus; conditions: 24 days after sowing; standard treatment agent, rate not given; winter rape Bristol; untreated = 15
Experimental: as §1, §2

[4] = test system: Brassica napus (winter rape, species Express); test: Field trial of treated oilseed rape seed: yield; format: in vivo; conditions: seed treatment; independent of the site
Experimental: as §1
The yield after a period of vegetation is higher after treatment of the oilseed rape seed with fluquinconazole compared with the untreated control. This effect is independent of the site.

[5] = seed treatment, both exemplary embodiments

Q: Which “Fungal infestation of the leaves (% total infestation)” value ([1]; 41 days after sowing, standard treatment agent, rate not given, winter rape Bristol, untreated = 30) does the source give for `COc1ccc(C(=CC(=O)N2CCOCC2)c2ccc(Cl)cc2)cc1OC` [Dimethomorph] here?
A: 25 % total infestation

Q: What about the “Plant biomass (% - relative to untreated)” value ([2]; 24 days after sowing) of the same compound?
A: 105%

Q: And the “Plant biomass (% - relative to untreated)” value ([2]; 41 days after sowing)?
A: 102%

Q: What about the “Foliar infestation with downy mildew (% total infestation)” value [3] of the same compound?
A: 5 % total infestation

Q: Which “Yield after a period of vegetation compared with the untreated control” value [4] does the source give for `O=c1c2cc(F)ccc2nc(-n2cncn2)n1-c1ccc(Cl)cc1Cl` [fluquinconazole, 3-(2,4-dichlorophenyl)-6-fluoro-2-(1H-1,2,4-triazol-1-yl)-quinazolin-4(3H)-one] here?
A: higher

Q: And the “Suppression of fungal infestation compared with the untreated control and with dimethomorph” value [1, 5]?
A: higher

Q: What about the “Increase in the plant biomass compared with the untreated control and with dimethomorph” value [2, 5] of the same compound?
A: higher
